Measured values reported in patent US20240125703A1, “SYSTEMS AND METHODS FOR Q[…] OBSERVED VISUALIZATION OF FL[…] AGENTS” (Stryker Corporation, priority 2022, published 2024).

Key:
ureters [1] = experiment: Contrast quantification / contrast enhancement factor (CEF) from surgical video frames of ureters, laparoscopic/minimally invasive colorectal surgery (Phase 2); format: in vivo, human; details: for contrast quantification: single subject, 1.0 mg dose
Description: The following example illustrates using contrast quantification, according to method 100, to assess the visual effectiveness of different fluorescence imaging agent doses. In this example, subjects undergoing laparoscopic/minimally invasive colorectal surgery received doses of either 0.3 mg, 1.0 mg, or 3 mg of pudexacianinium chloride (Chemical formula (A))—an indocyanine-green derivative fluorescence imaging agent with hydrophilic properties and rapid urinary clearance without metabolism after intravenous administration—at the start of the minimally invasive surgery procedure and the normal colectomy was completed.
At pre-specified time intervals during the surgery, the surgeon utilized a fluorescence visualization system to examine the retroperitoneum and attempted to visualize the ureters. The surgical videos generated by the fluorescence visualization system were recorded. Frames from these surgical videos were analyzed according to method 100 to quantify the color contrast observable by the surgeon when a bolus of the fluorescence imaging agent passed through the ureters.
Baseline and fluorescence-containing images for a subject who received a 1.0 mg dose of the fluorescence imaging agent are illustrated in FIG. 5—baseline image 400 and fluorescence-containing image 402. The color images 400, 402 are full color surgical video frames generated by a fluorescence visualization system that combines full color and fluorescence frames into a combined frame in which the fluorescence signal is captured in the green component of the frame. The color images 400, 402 capture a portion of a ureter, which is visible in bright green in fluorescence-containing image 402. The fluorescence-containing image 402 was captured while a bolus of the fluorescence imaging agent was present in the portion of the ureter within the field of view, and the baseline image 400 was captured shortly after the bolus of the fluorescence imaging agent had at least partially passed through the portion of the ureter.
Each of the color images 400, 402 was imported in a video analysis software and exported as separate greyscale bitmaps of the red (R), green (G) and blue (B) color components corresponding to each full color image frame.
Next, a line was plotted that transects the ureter at the same location on both the fluorescence-containing and baseline bitmaps for each R, G, and B color component. Graphs were subsequently created that plot the bitmap signal intensity values at each point along the line segment against position on the line segment for each line segment in each color component. Red, green and blue graphs were constructed for each pair of fluorescence-containing — baseline color components. Exemplary graphs are illustrated in FIGS. 7A-C, which include the graphs for each color component for the fluorescence-containing image (“dye”) and baseline image (“no-dye”) on the same plot. FIG. 7A is the graph for the red color component for the fluorescence-containing and baseline images, FIG. 7B is the graph for the blue color component for the fluorescence-containing and baseline images, and FIG. 7C is the graph for the green color component for the fluorescence-containing and baseline images,
At least the graph for the green component was then analyzed to identify, according to steps 104 and 106 of method 100, regions along the line segment (shown in FIG. 7D as position 0-300) that—by comparison with the bitmap—lie clearly inside the anatomical boundaries of the ureter (a region encompassed by the anatomy of interest according to step 104) or clearly outside of those same anatomical boundaries (a region not encompassed by the anatomy of interest according to step 106). Note that the “inside” and “outside” regions are different for the fluorescence imaging agent (“dye”) and baseline (“no Dye”) images due to the differences in the field of view of the color images. […]

[2] = In vitro NIR-F of ASP5354 in 96 well plates, microplate reader (excitation 780 nm, emission 820 nm); format: physicochemical; details: 0.01-1000 μg/mL in 96 well plates
Description: The following example illustrates using a measure of visual enhancement of the anatomy of interest in a color image (a contrast enhancement factor), generated according to method 100, as an alternative to biological samples for bioequivalence and bioavailability assessments of a fluorescence imaging agent, in particular the fluorescence dye ASP5354 (pudexacianinium). In this example, two in vitro studies were performed to determine the effect of ASP5354 concentration on near-infrared fluorescence (NIR-F). In the first study, ASP5354 (0.01-1000 μg/mL) was added to 96 well plates, the plates placed in a microplate reader, and subjected to a near-infrared excitation frequency of 780 nm. The emitted NIR-F determined at a wavelength of 820 nm. The fluorescence intensity increased as the concentration of pudexacianinium increased and tended to plateau at concentrations greater than or equal to 100 μg/mL.

pig ureters ex vivo = experiment: NIR-F of pudexacianinium instilled in pig ureters ex vivo (PDE-NEO NIR-F imager); details: for NIR-F Intensity: mean, three ureters
Description: In the second study, pudexacianinium (0.01-10 μg/mL) was instilled in pig ureters ex vivo and the NIR-F determined using a PDE-NEO NIR-F imager. Here too, the NIR-F intensity increased with increasing concentrations of pudexacianinium with the fluorescence intensity tending to plateau at concentrations equal to or greater than 1 μg/mL, as shown in the table below. Thus, the fluorescence activity of pudexacianinium can be visualized in the lumen of ureters.

ureters [3] = experiment: In vivo ureter visualization in Gottingen minipigs, NIR-F camera, visual assessment by three clinicians
Description: Next, the ability to visualize ureters in vivo was assessed in Gottingen minipigs. The animals were anesthetized, laparotomized and then intravenously injected with pudexacianinium (0.001 or 0.01 mg/kg). Videos of the abdominal cavity were taken using a NIR-F camera and assessed visually by three independent clinicians for up to three hours.

[4] = Urine concentration of pudexacianinium in minipigs; format: in vivo, Gottingen minipigs; details: 0.01 mg/kg; over 3 hour observation period
Description: A direct translation of the nonclinical pharmacology visualization results in the intended clinical use and dose in humans is considered feasible given the simple elimination route of the dye in both cases (eliminated entirely through renal system) and given the physiologic comparability between porcine and human kidneys. The 0.01 mg/kg dose used in pigs translates to an approximate human equivalent dose of 0.7-0.8 mg/participant. This is consistent with the dose recommendation for the clinical Phase 3 study (1 mg/participant).

ureters [5] = experiment: Qualitative in vivo ureter visualization in Yorkshire pig (Stryker 1588 AIM System and SPY-PHI open field system); details: 0.01 mg/kg, iv; either imaging system; prior to any dissection
Description: In a second qualitative in vivo study, pudexacianinium (0.01 mg/kg, iv) was injected into a healthy female Yorkshire pig and the ureters were visualized using examples of an image guided surgery system 10 of FIG. 1A—a Stryker Corporation 1588 AIM System and a Stryker Corporation SPY-PHI open field system—prior to any dissection.

ureter(s) = experiment: Phase 2 dose ranging study, Visualization Review Committee (VRC) assessment of ureter visualization; format: in vivo, human
Excerpt: The results from the Phase 1 study provided the foundation for Phase 2 study, a randomized open-label, dose ranging study for ureter visualization, using ASP5354 in participants undergoing laparoscopic/minimally invasive colorectal surgery.
The results of the Phase 2 study support the use of pudexacianinium as an intraoperative ureter visualization (surgeon's ability to identify/locate the ureter from the surrounding structures) during the entire abdominopelvic surgical procedure. […] As a result, the VRC recommended moving forward with the 1 mg per participant dose for Phase 3.

[6] = Dye in ureter, 1 mg (N = 6) including expansion
[7] = No Dye in ureter, 0.3 mg (N = 3)
[8] = No Dye in ureter, 1 mg (N = 6) including expansion

pudexacianinium chloride
Contrast quantification, Mean (ureters [1]; 0.3 mg, N 3, Baseline image): 1.10 | Contrast quantification, Mean (ureters [1]; 0.3 mg, N 3, Fluorescence-containing image): 1.84 | proportion of data with CEF above 1.5 (ureters [1]; 1 mg and 3 mg, dye): ≥ 90% | Contrast quantification, Mean (ureters [1]; 1.0 mg, N 6, Fluorescence-containing image (first column of the dose)): 2.55 | Contrast quantification, Mean (ureters [1]; 1.0 mg, N 6, head printed Fluorescence-containing image (second column of the dose)): 1.06 | Contrast quantification, Mean (ureters [1]; 3.0 mg, N 3, Fluorescence-containing image (first column of the dose)): 3.23 | Contrast quantification, Mean (ureters [1]; 3.0 mg, N 3, head printed Fluorescence-containing image (second column of the dose)): 1.09 | CEF, Mean (SD) (ureters [1]; Dye in ureter, 0.3 mg (N = 3)): 1.84 (0.46) | CEF, Median (ureters [1]; Dye in ureter, 0.3 mg (N = 3)): 1.77 | CEF, Min-Max (ureters [1]; Dye in ureter, 0.3 mg (N = 3)): 1.3-3.0 | CEF, Mean (SD) (ureters [1]; Dye in ureter, 1 mg (N = 3)): 2.97 (1.03) | CEF, Median (ureters [1]; Dye in ureter, 1 mg (N = 3)): 2.96 | CEF, Min-Max (ureters [1]; Dye in ureter, 1 mg (N = 3)): 1.6-5.6 | CEF, Mean (SD) (ureters [1]; [6]): 2.55 (0.95) | CEF, Median (ureters [1]; [6]): 2.28 | CEF, Min-Max (ureters [1]; [6]): 1.3-5.6 | CEF, Mean (SD) (ureters [1]; Dye in ureter, 3 mg (N = 3)): 3.23 (1.70) | CEF, Median (ureters [1]; Dye in ureter, 3 mg (N = 3)): 2.64 | CEF, Min-Max (ureters [1]; Dye in ureter, 3 mg (N = 3)): 1.2-7.7 | CEF, Mean (SD) (ureters [1]; [7]): 1.10 (0.13) | CEF, Median (ureters [1]; [7]): 1.05 | CEF, Min-Max (ureters [1]; [7]): 0.9-1.3 | CEF, Mean (SD) (ureters [1]; No Dye in ureter, 1 mg (N = 3)): 1.06 (0.12) | CEF, Median (ureters [1]; No Dye in ureter, 1 mg (N = 3)): 1.07 | CEF, Min-Max (ureters [1]; No Dye in ureter, 1 mg (N = 3)): 0.8-1.3 | CEF, Mean (SD) (ureters [1]; [8]): 1.06 (0.12) | CEF, Median (ureters [1]; [8]): 1.06 | CEF, Min-Max (ureters [1]; [8]): 0.8-1.4 | CEF, Mean (SD) (ureters [1]; No Dye in ureter, 3 mg (N = 3)): 1.09 (0.10) | CEF, Median (ureters [1]; No Dye in ureter, 3 mg (N = 3)): 1.10 | CEF, Min-Max (ureters [1]; No Dye in ureter, 3 mg (N = 3)): 0.7-1.2 | contrast quantification (ureters [1]; baseline image): 1.3 | contrast quantification value for the baseline images (ureters [1]; baseline images, absence of bolus): around 1 | contrast quantification (ureters [1]; fluorescence imaging agent image): 2.0 | CEF value, all data points (ureters [1]; no dye conditions): below 1.5 | reference CEF (ureters [1]; no dye present in the ureter): ~1 | concentration at which fluorescence intensity tended to plateau [2]: greater than or equal to 100 μg/mL | NIR-F Intensity (pig ureters ex vivo; 0.01 ug/mL): 0.000 arbitrary units | NIR-F Intensity (pig ureters ex vivo; 0.03 ug/mL): 4.672 arbitrary units | NIR-F Intensity (pig ureters ex vivo; 0.1 ug/mL): 47.945 arbitrary units | NIR-F Intensity (pig ureters ex vivo; 0.3 ug/mL): 125.078 arbitrary units | NIR-F Intensity (pig ureters ex vivo; 1.0 ug/mL): 229.504 arbitrary units | NIR-F Intensity (pig ureters ex vivo; 3.0 ug/mL): 254.867 arbitrary units | NIR-F Intensity (pig ureters ex vivo; 10 ug/mL): 254.808 arbitrary units | concentration at which NIR-F intensity tended to plateau (pig ureters ex vivo; 0.01-10 μg/mL in pig ureters ex vivo): ≥ 1 µg/mL | animals demonstrating ureteral visualization for three hours (ureters [3]; 0.001 mg/kg intravenously): one out of three | animals showing ureteral visualization for the full three hour observation period (ureters [3]; 0.01 mg/kg intravenously): three out of three | urine concentration of pudexacianinium [4]: 1 to 6 µg/mL | visibility of ureters (ureters [5]): readily visible | VRC: adequacy for ureter(s) visualization (ureter(s); 0.3 mg per participant): inadequate for ureter(s) visualization | VRC: ureter(s) visualization (ureter(s); 1 mg per participant, during procedure, at beginning and end): provided ureter(s) visualization during the surgical procedure | VRC: difference in ureter(s) visualization between doses (ureter(s); 1 mg vs 3 mg dose): no notable differences | VRC conclusion on ureter visualization under NIR-F conditions (ureter(s); all doses (0.3, 1, 3 mg per participant)): enhanced visualization of ureter(s) | VRC: visualization throughout the duration of the surgical procedure (ureter(s); single dose of 1 mg and 3 mg per participant): consistently occurred
